Reference: patent US20050074819A1, “Screening method of drug for treatment of neuropathic pain” (JAPAN HEALTH SCIENCES FOUNDATION, priority 2003, published 2005)

Experiments:
[1] = tested on: male Wistar rats with L5 spinal nerve injury; assay: Tactile allodynia after L5 spinal nerve injury, von Frey paw withdrawal threshold, intrathecal injection; type: in vivo, rat; conditions: for paw withdrawal threshold 45 min after injection: ipsilateral hindpaw
Protocol: (§1) We used the spinal nerve injury model (Kim, S. H. & Chung, J. M. An experimental model for peripheral neuropathy produced by segmental spinal nerve ligation in the rat. Pain 50, 355-363. (1992)) with some modifications; a unilateral L5 spinal nerve of male Wistar rats was tightly ligated and cut just distal to the ligature. The mechanical allodynia was assessed in naive and nerve-injured rats using calibrated von Frey filaments (0.4-15.1 g). Rats were injected intrathecally with P2XR antagonists, TNP-ATP and PPADS (Sigma-RBI), and antisense and mismatch ODN. For the experiments in FIG. 5, the cultured microglia (see Supplementary Information 1) that had been pre-incubated with or without ATP (50 μM) were injected intrathecally in normal rats. Full details of experimental methods are as follows.
(§2) A unilateral L5 spinal nerve of male Wistar rats was tightly ligated and cut just distal to the ligature. To assess the mechanical allodynia, the calibrated von Frey filaments (0.4-15.1 g) were applied to the plantar surface of the hindpaw from below the mesh floor. The 50% paw withdrawal threshold was determined using the up-down method (Chaplan, S. R., Bach, F. W., Pogrel, J. W., Chung, J. M. & Yaksh, T. L. Quantitative assessment of tactile allodynia in the rat paw. J Neurosci Methods 53, 55-63, 1994). Rats were implanted with a PE-10 polyethylene tube to the lumber enlargement (Yaksh, T. L., Jessell, T. M., Gamse, R., Mudge, A. W. & Leeman, S. E. Intrathecal morphine inhibits substance P release from mammalian spinal cord in vivo. Nature 286, 155-157, 1980) for intrathecal injection of P2XR antagonists [2′,3′-O-(2,4,6-trinitrophenyl)adenosine 5′-triphosphate (TNP-ATP) (Sigma-RBI) and pyridoxalphosphate-6-azophenyl-2′,4′-disulphonic acid (PPADS) (Sigma-RBI)], P2X4R antisense or mismatch ODN. We confirmed that PPADS and TNP-ATP used in the present study show biological activity to inhibit effects of α,β-methylene ATP in vitro and in vivo. The 16-base antisense ODN endcapped with phosphorothioate linkages were designed according to the primary sequence of the rat P2X4R cDNA (X87763). The sequence of the P2X4R antisense and mismatch ODN was 5′-CAGCCCGCCATGGCTC-3′ (SEQ ID NO: 3) and 5′-ACCGCCGCCAGTGCCT-3′ (SEQ ID NO: 4), respectively. The mismatch ODN served as a control. Rats were injected intrathecally with antisense ODN (5 nmol 10 μl^−1) and mismatch ODN (5 nmol 10 μl^−1) using a 25-μl Hamilton syringe with 28-gauge needle once a day from day 0 (immediately after nerve injury) to day 6. On day 7, paw withdrawal threshold of antisense ODN- and mismatch ODN-treated rats were tested. After the test, to quantify the levels of P2X4R protein in the spinal cord in both groups using Western blot analysis, the membrane fraction from the ipsilateral spinal cord segments L4-L6 was prepared. For the experiments in which cultured microglia were administered intrathecally, the cultured microglia were pre-incubated with ATP (50 μM) or PBS for 1 hr at 37° C. immediately prior to administration. Microglia with their supernatant were injected intrathecally in normal rats and paw withdrawal threshold was tested 1, 3 and 5 hr later. TNP-ATP (10 μM) was preincubated with microglia starting 10 min prior to ATP application.

[2] = tested on: normal rats; assay: Tactile allodynia in normal rats after intrathecal administration of ATP-stimulated cultured microglia; type: in vivo, rat
Protocol: as §1
as §2, with “On day 7, paw withdrawal threshold of antisense ODN- and mismatch ODN-treated rats were tested.” left out, “For the experiments in which cultured microglia were administered intrathecally, the cultured microglia were pre-incubated with ATP (50 μM) or PBS for 1 hr at 37° C. immediately prior to administration. Microglia with their supernatant were injected intrathecally in normal rats and paw withdrawal threshold was tested 1, 3 and 5 hr later. TNP-ATP (10 μM) was preincubated with microglia starting 10 min prior to ATP application.” left out

[3] = tested on: effects of α,β-methylene ATP; assay: Check of biological activity against effects of α,β-methylene ATP in vitro and in vivo
Protocol: A unilateral L5 spinal nerve of male Wistar rats was tightly ligated and cut just distal to the ligature. To assess the mechanical allodynia, the calibrated von Frey filaments (0.4-15.1 g) were applied to the plantar surface of the hindpaw from below the mesh floor. The 50% paw withdrawal threshold was determined using the up-down method (Chaplan, S. R., Bach, F. W., Pogrel, J. W., Chung, J. M. & Yaksh, T. L. Quantitative assessment of tactile allodynia in the rat paw. J Neurosci Methods 53, 55-63, 1994). Rats were implanted with a PE-10 polyethylene tube to the lumber enlargement (Yaksh, T. L., Jessell, T. M., Gamse, R., Mudge, A. W. & Leeman, S. E. Intrathecal morphine inhibits substance P release from mammalian spinal cord in vivo. Nature 286, 155-157, 1980) for intrathecal injection of P2XR antagonists [2′,3′-O-(2,4,6-trinitrophenyl)adenosine 5′-triphosphate (TNP-ATP) (Sigma-RBI) and pyridoxalphosphate-6-azophenyl-2′,4′-disulphonic acid (PPADS) (Sigma-RBI)], P2X4R antisense or mismatch ODN. We confirmed that PPADS and TNP-ATP used in the present study show biological activity to inhibit effects of α,β-methylene ATP in vitro and in vivo. […] After the test, to quantify the levels of P2X4R protein in the spinal cord in both groups using Western blot analysis, the membrane fraction from the ipsilateral spinal cord segments L4-L6 was prepared. […]

[4] = target: T1, P2X4Rs (Rattus norvegicus, UniProt P51577); assay: Intracellular Ca2+ imaging (fura-2) of ATP-evoked response in primary cultured microglia; type: cell-based; conditions: for ATP-evoked increase in 340/360 ratio (fura-2): 10 min before and during ATP (50 μM, 10 s)
T1 construct: mixed glial culture was prepared from neonatal Wistar rats; endogenous in cells; host or cells: primary cultured microglia from neonatal Wistar rats
T1 sequence (P51577 1-388): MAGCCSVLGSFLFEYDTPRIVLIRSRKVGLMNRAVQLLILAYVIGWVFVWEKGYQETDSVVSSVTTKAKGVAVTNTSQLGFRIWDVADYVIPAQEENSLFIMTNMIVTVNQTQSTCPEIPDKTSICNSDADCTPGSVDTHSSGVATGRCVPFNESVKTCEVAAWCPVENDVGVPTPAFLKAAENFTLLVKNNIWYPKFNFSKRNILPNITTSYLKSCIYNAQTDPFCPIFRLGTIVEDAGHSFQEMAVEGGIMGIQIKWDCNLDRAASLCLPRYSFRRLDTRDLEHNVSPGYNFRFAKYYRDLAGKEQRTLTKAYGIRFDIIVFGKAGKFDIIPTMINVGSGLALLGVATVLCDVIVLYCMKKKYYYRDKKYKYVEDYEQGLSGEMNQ
Excerpt: As P2X4Rs are reported to be highly permeable to Ca^2+ (Khakh, B. S. et al. International union of pharmacology. XXIV. Current status of the nomenclature and properties of P2X receptors and their subunits. Pharmacol Rev 53, 107-118, 2001), we investigated whether the P2X4Rs on these microglia were functional by applying the agonist ATP and monitoring the level of intracellular Ca^2+ ([Ca^2+]i) in individual cells using the Ca^2+-sensitive fluorescent dye fura-2.
The detailed procedures are as follows. Rat primary cultured microglia were prepared according to the method described previously (Nakajima, K. et al. Identification of elastase as a secretory protease from cultured rat microglia. J Neurochem 58, 1401-1408, 1992). In brief, mixed glial culture was prepared from neonatal Wistar rats and maintained for 10-16 days in DMEM with 10% fetal bovine serum. Microglia were obtained as floating cells over the mixed glial culture. The floating cells were collected by a gentle shake and transferred to appropriate dishes or glasses, and then the microglia attached to them were used for RT-PCR, intracellular Ca^2+ imaging, immunocytochemistry.

[5] = tested on: microglia in the dorsal horn; assay: Number of microglia and OX42 immunofluorescence in dorsal horn after ODN treatment; type: in vivo, rat; conditions: 5 nmol intrathecal once a day for 7 days
Excerpt: (§3) Transverse L5 spinal cord sections (30 μm) were cut and processed for immunohistochemistry using P2X4R antibody (Alomone). Markers of microglia, OX42 (Chemicon) and iba1 (gifted from S. Kohsaka); astrocytes, GFAP (Boehringer Mannheim); spinal cord neurones, NeuN (Chemicon) and MAP2 (Chemicon) were used to identify the type of P2X4R-positive cells. To assess immunofluorescence staining of cells quantitatively, we measured the immunofluorescence intensity of the P2X4R or OX42 as the average pixel intensity within each cell. Full details of experimental methods are as follows.
(§4) Transverse L5 spinal cord sections (30 μm) were incubated for 2 hr at room temperature in a blocking solution (3% normal goat serum) and then incubated for 48 hr at 4° C. in the primary antibody for P2X4R (anti-P2X4 receptor, 1:500, Alomone). […] The spinal cord sections were analysed using a MicroRadiance Confocal Imaging System (Bio-Rad) and an Olympus IX70 microscope equipped for epifluorescence. […] Microglia, as identified by OX42 immunofluorescence were outlined, and the immunofluorescence intensity (using a 9-bit scale) of the P2X4R or OX42 was determined as the average pixel intensity within each cell. Background fluorescence intensity was determined and was subtracted from the value obtained for microglia.

[6] = tested on: P2X4R protein; assay: Immunofluorescence intensity of P2X4R protein in individual dorsal horn microglia after ODN treatment; type: in vivo, rat; conditions: 5 nmol intrathecal once a day for 7 days
Excerpt: as §3, §4

[7] = tested on: P2X4R protein; assay: Western blot of P2X4R protein in spinal cord membrane fraction after intrathecal ODN treatment; type: in vivo, rat; conditions: 5 nmol intrathecal once a day for 7 days, immunoblot
Protocol: A unilateral L5 spinal nerve of male Wistar rats was tightly ligated and cut just distal to the ligature. To assess the mechanical allodynia, the calibrated von Frey filaments (0.4-15.1 g) were applied to the plantar surface of the hindpaw from below the mesh floor. The 50% paw withdrawal threshold was determined using the up-down method (Chaplan, S. R., Bach, F. W., Pogrel, J. W., Chung, J. M. & Yaksh, T. L. Quantitative assessment of tactile allodynia in the rat paw. J Neurosci Methods 53, 55-63, 1994). […] After the test, to quantify the levels of P2X4R protein in the spinal cord in both groups using Western blot analysis, the membrane fraction from the ipsilateral spinal cord segments L4-L6 was prepared. […]
The membrane fraction from spinal cord segments L4-L6 ipsilateral or contralateral to the nerve injury was used. […] The blots were detected using a chemiluminescence method (ECL system; Amersham) and exposed to autoradiography films (Hyperfilm-ECL; Amersham).

[8] = tested on: nociceptive behaviours; conditions: intrathecal 30 or 100 nmol; cited from earlier work
[9] = tested on: rat model of postoperative pain; conditions: administration at the incision area, effective only before surgical operation; cited from earlier work
[10] = 30 nmol intrathecal 5 hr after ATP-stimulated microglia
[11] = 5 nmol intrathecal once a day for 7 days, tested day 7

For “2′,3′-O-(2,4,6-Trinitrophenyl) Adenosine 5′-Triphosphate [TNP-ATP]”, the “paw withdrawal threshold on the side contralateral to the nerve injury” value ([1]; 30 nmol intrathecal, 45 min after injection) was 14.3 ± 0.8 g, the “time of peak increase in paw withdrawal threshold after injection” value ([1]; 30 nmol intrathecal, nerve-injured rats) was “about 45 min” and the “effect on tactile allodynia” value ([1]; day 7, 30 nmol intrathecal, at peak of effect) was “reversed”. The “dose producing half-maximum effect on paw withdrawal threshold” value ([1]; day 7, intrathecal) was 8.1 nmol, the “paw withdrawal threshold 45 min after injection” value ([1]; day 7 after nerve injury, 30 nmol intrathecal) was 14.6 ± 0.5 g and the “recovery of paw withdrawal threshold” value ([1]; day 14, 30 nmol intrathecal, 45 min after injection) was 73%. For the same molecule, the “dose producing half-maximum effect on paw withdrawal threshold” value ([1]; day 14, intrathecal) was 15.5 nmol, the “paw withdrawal threshold 45 min after injection” value ([1]; day 14 after nerve injury, 30 nmol intrathecal) was 11.6 ± 1.3 g and the “motor behaviour following administration” value ([1]; intrathecal) was “no alteration”. For the same molecule, the “effect on allodynia caused by ATP-stimulated microglia” value [2, 10] was “reversed the allodynia”, the “time of peak increase in paw withdrawal threshold after injection” value [2, 10] was 45 to 75 min and the “decrease in paw withdrawal threshold caused by ATP-stimulated microglia” value ([2]; 10 μM together with ATP (50 μM) in the microglia pre-incubation) was “prevented”. The “biological activity on effects of α,β-methylene ATP” value [3] was “inhibit” and the “ATP-evoked increase in 340/360 ratio (fura-2)” value ([4]; 10 μM) was “suppressed”.

In the case of “5′-ACCGCCGCCAGTGCCT-3′ (DNA, backbone and methylation of C not given here; end-capped with phosphorothioate linkages) [mismatch ODN]”, the “paw withdrawal threshold compared with untreated controls” value [1, 11] is reported as “not different”.

In the case of “5′-CAGCCCGCCATGGCTC-3′ (phosphorothioate end caps, number of linkages not given here) [P2X4R antisense ODN]”, the “level of OX42 immunofluorescence per individual microglia versus mismatch ODN” value [5] is reported as “nor was there a difference”, the “number of microglia in the dorsal horn versus mismatch ODN” value [5] is reported as “no difference” and the “decrease of immunofluorescence intensity of P2X4R protein in individual microglia versus mismatch ODN” value [6] is reported as 37.1±0.2%. For the same molecule, the “nerve injury-induced decrease in paw withdrawal threshold compared with mismatch ODN” value [1, 11] was “significantly less”, the “recovery of paw withdrawal threshold towards the baseline level prior to nerve injury” value [1, 11] was 47.4±8.3% and the “decrease of P2X4R protein level in spinal cord homogenates versus mismatch ODN” value [7] was 32.0±4.8%.

With `Nc1ncnc2c1ncn2[C@@H]1O[C@H](COP(=O)(O)OP(=O)(O)OP(=O)(O)O)[C@@H](O)[C@H]1O` [ATP, adenosine 5′-triphosphate] the “paw withdrawal threshold after intrathecal administration” value ([2]; normal rats, ATP 50 μM, tested 1, 3 and 5 hr later) was “unaffected” and the “340/360 emission ratio for fura-2 ([Ca2+]i)” value ([4]; agonist 50 μM, 10 s) was “transient increase”.

For `Cc1nc(N=Nc2ccc(S(=O)(=O)O)cc2S(=O)(=O)O)c(COP(=O)(O)O)c(C=O)c1O` [PPADS, Pyridoxalphosphate-6-azophenyl-2′,4′-disulphonic acid], the “effect on paw withdrawal threshold” value ([1]; day 7, 30 or 100 nmol intrathecal) is listed as “no effect”, the “effect on paw withdrawal threshold” value ([1]; day 14, 30 or 100 nmol intrathecal) is listed as “no effect” and the “nociceptive behaviours (intrathecal α,β-methylene ATP, second phase of formalin test, bee venom)” value [8] is listed as “suppress”. The “allodynia in a rat model of postoperative pain” value [9] was “suppressed allodynia”, the “biological activity on effects of α,β-methylene ATP” value [3] was “inhibit” and the “ATP-evoked increase in 340/360 ratio (fura-2)” value ([4]; 10 μM) was “unaffected”.

For `CCOc1ccc(Nc2ccc(/C(=C3C=C/C(=[N+](/CC)Cc4cccc(S(=O)(=O)[O-])c4)C=C/3C)c3ccc(N(CC)Cc4cccc(S(=O)(=O)[O-])c4)cc3C)cc2)cc1.[Na+]` [brilliant blue G], the “ATP-evoked increase in 340/360 ratio (fura-2)” value ([4]; 100 nM) was “not altered”.
